The source made the active and inactive calls. No rule for the calls is given here.
System: CCRIS mutagenicity, Ames/micronucleus/aberration tests
Test: CCRIS mutagenicity studies
[1] = Test System: AMES SALMONELLA TYPHIMURIUM, Strain/Indicator: TA98, Metabolic Activation: NONE, Method: STANDARD PLATE
[2] = Test System: AMES SALMONELLA TYPHIMURIUM, Strain/Indicator: TA98, Metabolic Activation: RAT, LIVER, S-9, AROCLOR 1254, Method: STANDARD PLATE
[3] = Test System: AMES SALMONELLA TYPHIMURIUM, Strain/Indicator: TA100, Metabolic Activation: NONE, Method: STANDARD PLATE
[4] = Test System: AMES SALMONELLA TYPHIMURIUM, Strain/Indicator: TA100, Metabolic Activation: RAT, LIVER, S-9, AROCLOR 1254, Method: STANDARD PLATE
[5] = Test System: AMES SALMONELLA TYPHIMURIUM, Strain/Indicator: TA1535, Metabolic Activation: NONE, Method: STANDARD PLATE
[6] = Test System: AMES SALMONELLA TYPHIMURIUM, Strain/Indicator: TA1535, Metabolic Activation: RAT, LIVER, S-9, AROCLOR 1254, Method: STANDARD PLATE
[7] = Test System: AMES SALMONELLA TYPHIMURIUM, Strain/Indicator: TA1538, Metabolic Activation: NONE, Method: STANDARD PLATE
[8] = Test System: AMES SALMONELLA TYPHIMURIUM, Strain/Indicator: TA1538, Metabolic Activation: RAT, LIVER, S-9, AROCLOR 1254, Method: STANDARD PLATE
[9] = Test System: AMES SALMONELLA TYPHIMURIUM, Strain/Indicator: TA1537, Metabolic Activation: NONE, Method: STANDARD PLATE
[10] = Test System: AMES SALMONELLA TYPHIMURIUM, Strain/Indicator: TA100, Metabolic Activation: NONE, Method: PREINCUBATION
[11] = Test System: AMES SALMONELLA TYPHIMURIUM, Strain/Indicator: TA100, Metabolic Activation: RAT, LIVER, S-9, AROCLOR 1254, Method: PREINCUBATION

## CCCCCC(O)CC(=O)CCC1CCC(O)C(OC)C1 (centres undefined)
[1]
  mutagenic call: inactive; negative
[2]
  mutagenic call: inactive; negative
[3]
  mutagenic call: inactive; negative
[4]
  mutagenic call: active; positive
[5]
  mutagenic call: inactive; negative
[6]
  mutagenic call: active; positive
[7]
  mutagenic call: inactive; negative
[8]
  mutagenic call: inactive; negative

## CC/C(=C(\c1ccccc1)c1ccc(OCCN(C)C)cc1)c1ccccc1
End Point: IN VITRO CHROMOSOMAL ABERRATIONS, Test System: SYRIAN HAMSTER EMBRYO (SHE) CELLS, Metabolic Activation: NONE
  mutagenic call: inactive; negative
End Point: IN VITRO MICRONUCLEUS, Test System: AHH-1 CELLS, Metabolic Activation: NONE
  mutagenic call: inactive; negative
End Point: IN VITRO MICRONUCLEUS, Test System: MCL-5 CELLS, Metabolic Activation: NONE
  mutagenic call: active; positive
Test System: AMES SALMONELLA TYPHIMURIUM, Strain/Indicator: TA98, Metabolic Activation: HAMSTER, LIVER, S-9, AROCLOR 1254, Method: STANDARD PLATE
  mutagenic call: inactive; negative
[1]
  mutagenic call: inactive; negative
[2]
  mutagenic call: inactive; negative
Test System: AMES SALMONELLA TYPHIMURIUM, Strain/Indicator: TA100, Metabolic Activation: HAMSTER, LIVER, S-9, AROCLOR 1254, Method: STANDARD PLATE
  mutagenic call: inactive; negative
[3]
  mutagenic call: inactive; negative
[4]
  mutagenic call: inactive; negative
Test System: AMES SALMONELLA TYPHIMURIUM, Strain/Indicator: TA1535, Metabolic Activation: HAMSTER, LIVER, S-9, AROCLOR 1254, Method: STANDARD PLATE
  mutagenic call: inactive; negative
[5]
  mutagenic call: inactive; negative
[6]
  mutagenic call: inactive; negative
Test System: AMES SALMONELLA TYPHIMURIUM, Strain/Indicator: TA1537, Metabolic Activation: HAMSTER, LIVER, S-9, AROCLOR 1254, Method: STANDARD PLATE
  mutagenic call: inactive; negative
[9]
  mutagenic call: inactive; negative
Test System: AMES SALMONELLA TYPHIMURIUM, Strain/Indicator: TA1537, Metabolic Activation: RAT, LIVER, S-9, AROCLOR 1254, Method: STANDARD PLATE
  mutagenic call: inactive; negative
Test System: AMES SALMONELLA TYPHIMURIUM, Strain/Indicator: TA1538, Metabolic Activation: HAMSTER, LIVER, S-9, AROCLOR 1254, Method: STANDARD PLATE
  mutagenic call: inactive; negative
[7]
  mutagenic call: inactive; negative
[8]
  mutagenic call: inactive; negative
Test System: CHINESE HAMSTER V-79, Strain/Indicator: V-79 (HPRT)/6-THIOGUANINE, Metabolic Activation: NONE
  mutagenic call: inactive; negative

## Nc1cc(Cl)ccc1[N+](=O)[O-]
End Point: IN VITRO CHROMOSOMAL ABERRATIONS, Test System: CHL CELLS, Metabolic Activation: RAT, LIVER, S-9, SODIUM PHENOBARBITAL AND 5,6-BENZOFLAVONE
  mutagenic call: active; positive (structural changes); authors report equivocal results for ploidy chang
Test System: AMES SALMONELLA TYPHIMURIUM, Strain/Indicator: TA98, Metabolic Activation: NONE, Method: PREINCUBATION
  mutagenic call: active; positive
Test System: AMES SALMONELLA TYPHIMURIUM, Strain/Indicator: TA98, Metabolic Activation: RAT LIVER S-9, PHENOBARBITAL AND BETA-NAPHTHOFLAVONE, Method: PREINCUBATION
  mutagenic call: active; positive
[10]
  mutagenic call: inactive; negative
Test System: AMES SALMONELLA TYPHIMURIUM, Strain/Indicator: TA100, Metabolic Activation: RAT LIVER S-9, PHENOBARBITAL AND BETA-NAPHTHOFLAVONE, Method: PREINCUBATION
  mutagenic call: inactive; negative
Test System: AMES SALMONELLA TYPHIMURIUM, Strain/Indicator: TA1535, Metabolic Activation: NONE, Method: PREINCUBATION
  mutagenic call: inactive; negative
Test System: AMES SALMONELLA TYPHIMURIUM, Strain/Indicator: TA1535, Metabolic Activation: RAT LIVER S-9, PHENOBARBITAL AND BETA-NAPHTHOFLAVONE, Method: PREINCUBATION
  mutagenic call: inactive; negative
Test System: AMES SALMONELLA TYPHIMURIUM, Strain/Indicator: TA1537, Metabolic Activation: NONE, Method: PREINCUBATION
  mutagenic call: inactive; negative
Test System: AMES SALMONELLA TYPHIMURIUM, Strain/Indicator: TA1537, Metabolic Activation: RAT LIVER S-9, PHENOBARBITAL AND BETA-NAPHTHOFLAVONE, Method: PREINCUBATION
  mutagenic call: inactive; negative
Test System: E.COLI, Strain/Indicator: WP2UVRA, Metabolic Activation: NONE, Method: PREINCUBATION
  mutagenic call: inactive; negative
Test System: E.COLI, Strain/Indicator: WP2UVRA, Metabolic Activation: RAT LIVER S-9, PHENOBARBITAL AND BETA-NAPHTHOFLAVONE, Method: PREINCUBATION
  mutagenic call: inactive; negative

## CC[C@@]1(O)C[C@H](O)c2c(cc3c(c2O)C(=O)c2c(O)cccc2C3=O)[C@H]1C(=O)OC
[1]
  mutagenic call: active; positive
[2]
  mutagenic call: active; positive
[3]
  mutagenic call: inactive; negative
[7]
  mutagenic call: inactive; negative

## O=C1c2cccc3ccc4ccc5cccc1c5c4c23
[1]
  mutagenic call: inactive; negative
[3]
  mutagenic call: inactive; negative

## CCOC(=O)C(C)Br (centres undefined)
[3]
  mutagenic call: active; positive

## C[C@]12CC[C@@H]3c4ccc(O)cc4CC[C@H]3C13CCC2(O)CC3
End Point: IN VITRO CHROMOSOMAL ABERRATIONS, Test System: HUMAN PERIPHERAL LYMPHOCYTES, Metabolic Activation: NONE
  mutagenic call: inactive; negative at 20-24 hr; positive (high doses) at 48 hr
End Point: IN VITRO CHROMOSOMAL ABERRATIONS, Test System: HUMAN PERIPHERAL LYMPHOCYTES, Metabolic Activation: RAT, LIVER, S-9, AROCLOR 1254
  mutagenic call: inactive; negative

## O=C(O)COc1ccccc1
Test System: AMES SALMONELLA TYPHIMURIUM, Strain/Indicator: TA97, Metabolic Activation: NONE, Method: PREINCUBATION
  mutagenic call: inactive; negative
Test System: AMES SALMONELLA TYPHIMURIUM, Strain/Indicator: TA97, Metabolic Activation: RAT, LIVER, S-9, AROCLOR 1254, Method: PREINCUBATION
  mutagenic call: inactive; negative
[10]
  mutagenic call: inactive; negative
[11]
  mutagenic call: inactive; negative
Test System: AMES SALMONELLA TYPHIMURIUM, Strain/Indicator: TA102, Metabolic Activation: NONE, Method: PREINCUBATION
  mutagenic call: inactive; negative
Test System: AMES SALMONELLA TYPHIMURIUM, Strain/Indicator: TA102, Metabolic Activation: RAT, LIVER, S-9, AROCLOR 1254, Method: PREINCUBATION
  mutagenic call: inactive; negative

## Cc1c2ccc(CO)cc2nc2c1ccc1ccccc12
[4]
  mutagenic call: active; positive

## O=[Se](O)O
End Point: IN VIVO CHROMOSOMAL ABERRATIONS, Test System: TESTICULAR CELLS, Species: MOUSE, Strain/Sex: KUNMING/MALE, Route: DIET
  mutagenic call: selenite reduced number of chromosomal aberrations induced by mmc
End Point: IN VIVO MICRONUCLEUS, Test System: BONE MARROW CELLS, POLYCHROMATIC ERYTHROCYTES, Species: MOUSE, Strain/Sex: KUNMING/FEMALE, Route: DIET
  mutagenic call: selenite reduced micronuclei induced by cyclophosphamide
[5]
  mutagenic call: active; positive
Test System: CHINESE HAMSTER OVARY, Strain/Indicator: CHO-K1-BH4 (HGPRT)/6-THIOGUANINE, Metabolic Activation: NONE
  mutagenic call: active; positive
Test System: E. COLI, Strain/Indicator: WP2 UVRA, Metabolic Activation: NONE, Method: SPOT TEST
  mutagenic call: inactive; negative
Test System: MOUSE LYMPHOMA, Strain/Indicator: L5178Y (TK+/TK-), Metabolic Activation: NONE, Method: SUSPENSION/PLATE
  mutagenic call: active; positive. reevaluation of results: positive
Test System: MOUSE LYMPHOMA, Strain/Indicator: L5178Y (TK+/TK-), Metabolic Activation: RAT, LIVER, S-9, AROCLOR 1254, Method: SUSPENSION/PLATE
  mutagenic call: active; positive. reevaluation of results: positive
Test System: UDS HUMAN FIBROBLASTS, Strain/Indicator: THY INCORP (NON-S-PHASE), Metabolic Activation: MOUSE, LIVER, S-9, Method: AUTORADIOGRAPHY
  mutagenic call: active; positive

## Nc1ccc(/C=C/C(=O)O)cc1
[1]
  mutagenic call: inactive; negative
[2]
  mutagenic call: inactive; negative
[10]
  mutagenic call: inactive; negative
[3]
  mutagenic call: inactive; negative
[11]
  mutagenic call: inactive; negative
[4]
  mutagenic call: inactive; negative

## [N-]=[N+]=Nc1ccc2c(Nc3ccc(C(=O)O)cc3)c3ccccc3nc2c1
[9]
  mutagenic call: active; positive
